Laboratory results taken from the METLIN SMRT retention time set (Domingo-Almenara et al. 2019).

Test: gradient 5% acetonitrile 3 min, to 50% in 2 min, to 85% in 15 min, held 3 min, 100 µL/min
Conditions: column: Zorbax Extend-C18 2.1 x 50 mm; eluents: water / acetonitrile, 0.1% formic acid
Procedure, shortened: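 In both positive and negative ionization mode, a quadrupole time-of-flight mass spectrometer coupled to HPLC analyzed pure standards run in mixtures of ~100 molecules. The Zorbax Extend-C18 column (2.1 × 50 mm, 1.8 μm) was operated at 100 μL/min with water and acetonitrile, each containing 0.1% formic acid. The dead volume was 40 μL and the dwell volume 900 μL. Retention time came from adduct peaks that were computationally picked and individually inspected by hand.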

Structure (SMILES)	RP-LC retention time
Cc1ccc(C)c2sc(NC(=O)c3cccc(N4C(=O)CCC4=O)c3)nc12	852 s
CC1=C(c2ccc(C)cc2)S(=O)(=O)N=C1N1CCC(NC(=O)c2sccc2C)CC1	596 s
COc1cc(NC(=O)c2cnn(-c3ccc(Br)cc3)c2)cc(OC)c1OC	931 s
Cc1ccc(-c2nnc(SCC(=O)Nc3ccc(C)cc3Br)o2)cc1	830 s
CC(Oc1ccccc1F)C(=O)Nc1nc(-c2ccc(S(=O)(=O)N3CCOCC3)cc2)cs1 (configuration not stated)	1010 s
CCCc1cc(SCc2ccc(C(=O)OC)cc2)ncn1	992 s
Cc1nc2cc(-c3noc(-c4ccc(C)c(C)c4)n3)ccc2o1	1280 s
CCC(C)N(CC(=O)N1CCc2sccc2C1COc1ccc(Cl)cc1)C(=O)COC (configuration not stated)	955 s
O=c1n(Cc2cccc(F)c2)nc2ccc(S(=O)(=O)N3CCOCC3)cn12	800 s
CCn1ccc2cc(S(=O)(=O)N3CCC(C(=O)NCC4CCCO4)CC3)ccc21 (configuration not stated)	771 s
Cc1oc(-c2cccc(Cl)c2)nc1COc1cc(C)c2c(C)nn(C)c2n1	1340 s
Cc1ccc2c(Nc3cc(F)cc(F)c3)c(C(=O)N3CCCC3)cnc2n1	615 s
O=C1CCc2cc(NC(=O)c3n[nH]c4ccccc34)ccc2N1	633 s
O=C(NCCSc1ncc(-c2ccc(F)cc2)[nH]1)c1cccs1	584 s
Cc1ccc(C)c(NC(=O)N2CCC(c3cc(N)on3)CC2)c1	698 s
N#Cc1cccc(NC(=O)CN2CCc3[nH]c4c(F)c(Cl)ccc4c(=O)c3C2)c1	913 s
Cc1cc(S(=O)(=O)Nc2cccn3cnnc23)ccc1F	686 s
Cc1nn2c(S(=O)(=O)NC3CCCCCC3)c(C)nc2s1	844 s
CCOCCCNS(=O)(=O)c1cccc(-c2nc(-c3ccc(C)cc3)no2)c1	1160 s
Cc1ccc2c(C(=O)O)cc(NC(=O)C3CCC3)cc2n1	574 s
COc1ccc(OC)c(NC(=O)C2CCN(c3cc(N4CCCCC4)ncn3)CC2)c1	709 s

Structure (SMILES)	RP-LC retention time
O=C(NCc1ccc(F)cc1F)c1sc2ncccc2c1-n1cccc1	1020 s
CCCNc1cc(N2CCC(CCC(=O)NCc3ccc(F)cc3Cl)CC2)ncn1	727 s
COc1ccc(NC(=O)c2c[nH]c3ncccc23)c(C)c1	657 s
Cc1nc(CCNC(=O)C2CCN(C(=O)c3ccc(F)cc3)CC2)cs1	826 s
COc1ccc(OC)c(NC(=O)c2cnn(-c3ccc(Cl)cc3)c2)c1	991 s
CCN(Cc1ccc(OC)cc1)Cc1cc(=O)c2cc(F)ccc2[nH]1	613 s
CC(C)(C)NC(=O)NC1CCN(C(=O)C2CC2)C1 (configuration not stated)	610 s
CC1(C)CC(O)CC(C)(C)N1CC(O)COCCOc1ccc(F)cc1 (configuration not stated)	565 s
Cc1cc2n(n1)CCC(=O)N2CCCC(=O)NCCN(C)C1CCCCC1	576 s
Cc1oc2ccn(Cc3ccccc3F)c(=O)c2c1C(=O)NCc1ccc(F)cc1	1090 s
CNC(=O)[C@@H]1CN(C(=O)Cc2ccsc2)C[C@H]1c1n[nH]c(C)n1	565 s
Cc1cc(C(=O)Nc2ccccc2Cl)nc2cc(-c3ccco3)nn12	1280 s
CCc1nnc(-c2ccc(NS(=O)(=O)c3cccs3)cc2)o1	772 s
CCn1ccc(-c2nc(-c3ccc4oc(-c5ccccc5)nc4c3)no2)n1	1130 s
CN(C)C(CNC(=O)C(=O)Nc1ccc(OC(F)(F)F)cc1)c1ccccc1Cl (configuration not stated)	622 s
CCCN1C(=O)Cc2cc(C(=O)O)ccc21	643 s
COc1ccc(OC)c(NC(=O)C2CCCN2S(=O)(=O)c2cc3c(cc2Cl)NC(=O)CO3)c1 (configuration not stated)	829 s
COCCC(=O)N1CCCn2cc(-c3cccc(C#N)c3)nc21	639 s
Cc1ccc2ncn3c(=O)n(CC(=O)Nc4ccc(C(C)C)cc4)nc3c2c1	754 s
O=C(NCc1cccnc1)C1CN(S(=O)(=O)c2cccnc2)CC12CCCCC2 (configuration not stated)	595 s

Continued, values first:

RP-LC retention time	Structure (SMILES)
576 s	Cc1noc(C)c1CCC(=O)N1CCN(c2ncnc3c2CCC3)CC1
884 s	CCn1c(=O)c(C)nc2cc(-c3noc(C4CC(=O)N(c5ccc(C)cc5)C4)n3)ccc21 (configuration not stated)
853 s	COc1ccc(N2CCN(c3nc(C(=O)N4CCCC4)cs3)CC2)cc1
615 s	Cc1nn(C(C)C(=O)NCCCN2CCOCC2)c(=O)c2nn(-c3ccccc3)c(C)c12 (configuration not stated)
686 s	COc1ccc(N2CCN(C(=O)Cc3csc4nc(-c5ccc(OC)c(OC)c5)cn34)CC2)cc1
592 s	CN1CCN(C(=O)c2ccc(CN3CCN(Cc4ccc(F)cc4)C(=O)C3=O)cc2)CC1
907 s	CCC1Oc2ccc(S(=O)(=O)N3CCC(C(=O)Nc4ccccc4Cl)CC3)cc2NC1=O (configuration not stated)
816 s	COc1ccccc1CCC(=O)N1C[C@@H]2C[C@H](NC(=O)c3ccccc3)[C@H]1C2
699 s	C=CCN1CCN(c2nc3cc(C(=O)OC)ccc3c(=O)n2-c2ccc(F)c(Cl)c2)CC1
586 s	O=C(NCCN1CCN(C(=O)c2cccs2)CC1)Nc1ccc(C(F)(F)F)cc1
888 s	CS(=O)(=O)N1CCC(C(=O)NCc2ccccc2Cl)Oc2ccccc21 (configuration not stated)
579 s	O=C(c1cc(-c2ccncc2)n[nH]1)N1CCCC(C(=O)N2CCN(c3ncccn3)CC2)C1 (configuration not stated)
712 s	O=C(Cc1cccs1)NC1CC(=O)N(Cc2ccccc2)C1 (configuration not stated)
923 s	CCc1ccc(Nc2nc(C(=O)NCc3ccc(C)o3)nc3ccccc23)cc1
794 s	COc1ccc(-c2noc(-c3cc(N4CCN(C)CC4)nc4ccccc34)n2)cc1
915 s	Cn1cc(CC(=O)N2CCN(c3ccccc3F)CC2)c2ccccc21
879 s	Cc1ccc(Cn2c(N3CCC(C(=O)NCC4CC4)CC3)nc3ccsc3c2=O)cc1
588 s	CCn1c(=O)c(C(=O)N2CCN(c3ccccn3)CC2)nc2ccccc21
1020 s	CCOc1ccccc1NC(=O)c1sc(N2CCCC2=O)nc1CC
649 s	COc1ccc(OC)c(NC(=O)N2CCC(n3cnc4cccnc43)CC2)c1
629 s	O=C(NCCCN1CCOCC1)c1nc2ccccn2c1-c1ccc(Cl)cc1
1140 s	CCOc1ccccc1-c1noc(Cn2c(=O)n(C(C)CC)c(=O)c3ccccc32)n1 (configuration not stated)
810 s	Cc1ccc(NC(=O)Cn2c(N3CCc4ccccc4C3)nc(C)cc2=O)cc1
1030 s	CCOc1ccccc1NS(=O)(=O)c1cn(CC(C)C)c2ncccc12
563 s	COc1ccc(NC(=O)N2CCC(n3c(C)nc4cccnc43)CC2)cc1OC
995 s	O=C(C1CCN(c2ncnc3c2oc2ccccc23)CC1)N1CCC(Cc2ccccc2)CC1
